This is an account of results in patent US10624944B2, “Anti-inflammatory peptides for treating non-alcoholic steatohepatitis (NASH)” (Creative Bio-Peptides Inc., priority 2017, dated 2020).

The subject of assay [1] is inflammatory cytokine levels. Conditions: Hu; cited from earlier work.
For assay [2], the system named is TLR4/MyD88. To be noted: Rat; cited from earlier work.
Assay [3] deals with high fat diet mouse model of NAFLD. Conditions: cited from earlier work.
The target in assay [4] is T1, CCR2 (Homo sapiens, UniProt P41597). The assay is described as follows: CCL2 (MCP-1)-elicited chemotaxis of human monocytes. The class given is cell-based. Also noted: endogenous in cells; host or cells: human monocytes. To be noted: FIG. 3; methods similar to FIG. 2; low concentration. Here is the method:
Monocytes were treated with the indicated doses of RAP-103 for 30 min before chemotaxis against human CCL2 (MCP-1) or CCL4 (MIP-1β) (both 50 ng/mL) for 90 min. Data (chemotactic index) are presented as mean±SEM. The chemotactic index for MCP-1 without RAP-103 was 2.5-3.5 times over control, whereas for MIP-1 ? without RAP-103, it was approximately 2 times over control. Data are presented as mean±SEM. (*P<0.05, **P<0.01 vs RAP-103 untreated). Data are from [Padi, 2012, FIG. 1]. […] Dual-chemokine CCR2/CCR5 receptor antagonists may have added therapeutic value by blocking multiple inflammatory pathways.
Methods are similar to those in FIG. 2.

For assay [5], the system named is chemokines, chemokine receptors and cytokines. To be noted: Rat, oral gavage 0.05-1 mg/kg for 7 days, nerve injured. The text has this:
The specific experimental details are provided in Padi, 2012 (7).

Assay [6] has as its system human monocyte derived immature dendritic cells (iDCs). The text has this: In liver, TLR4 is expressed by all parenchymal and non-parenchymal cell types, and contributes to tissue damage caused by a variety of etiologies. TLR4 signaling occurs in hepatic stellate cells (HSCs), the major fibrogenic cell type in injured liver, and mediates an inflammatory phenotype leading to fibrogenesis.

For assay [7], the system named is TLR4/MyD88. To be noted: iDCs treated at 10^-12 M for 30 min, then LPS 100 ng/ml, analyzed after 48 hrs. Here is the method:
To determine whether all-D-TTNYT (SEQ ID NO:1) blocks maturation of antigen-presenting dendritic cells, human PBMC's were isolated from peripheral blood by Ficoll-Paque centrifugation and then monocytes were isolated by negative selection using immunobeads (Miltenyi). Human monocyte derived immature dendritic cells (iDCs) were then generated by treating monocytes with GM-CSF/IL4.
After 30 min LPS (100 ng/ml) was added to the cells and cells were analyzed after 48 hrs. for surface maturation markers using fluorescent labeled antibodies by flow cytometry.

In assay [8] the target is T1, CCR2. Conditions: 30 min pretreatment; CCL2 50 ng/mL for 90 min; FIG. 2; cited from earlier work.
The next assay deals with CCR5 (Homo sapiens, UniProt P51681). To be noted: 30 min pretreatment; CCL4 50 ng/mL for 90 min; FIG. 2; cited from earlier work.
Sequence of CCR5 (P51681 whole entry): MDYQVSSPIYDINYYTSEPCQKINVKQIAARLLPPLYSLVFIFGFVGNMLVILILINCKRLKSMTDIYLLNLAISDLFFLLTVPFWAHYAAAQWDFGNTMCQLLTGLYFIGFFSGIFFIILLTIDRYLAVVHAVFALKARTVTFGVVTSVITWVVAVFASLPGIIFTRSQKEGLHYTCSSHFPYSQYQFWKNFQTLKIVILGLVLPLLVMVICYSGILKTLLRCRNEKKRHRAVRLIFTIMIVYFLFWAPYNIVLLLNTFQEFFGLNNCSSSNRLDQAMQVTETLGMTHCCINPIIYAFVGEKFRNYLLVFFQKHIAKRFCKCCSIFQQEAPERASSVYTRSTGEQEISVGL
The test system of a further assay is response to bradykinin. To be noted: amounts up to 50,000 times the standard challenge of bradykinin; cited from earlier work.
[9] abbreviates: listed as all-D-pentapeptide TTNYT.

Read-outs that look alike come from different tables or passages of the source. Square brackets hold non-standard residues; d marks the D form. Ends that are not written are not given here.

T1 sequence (P41597 whole entry): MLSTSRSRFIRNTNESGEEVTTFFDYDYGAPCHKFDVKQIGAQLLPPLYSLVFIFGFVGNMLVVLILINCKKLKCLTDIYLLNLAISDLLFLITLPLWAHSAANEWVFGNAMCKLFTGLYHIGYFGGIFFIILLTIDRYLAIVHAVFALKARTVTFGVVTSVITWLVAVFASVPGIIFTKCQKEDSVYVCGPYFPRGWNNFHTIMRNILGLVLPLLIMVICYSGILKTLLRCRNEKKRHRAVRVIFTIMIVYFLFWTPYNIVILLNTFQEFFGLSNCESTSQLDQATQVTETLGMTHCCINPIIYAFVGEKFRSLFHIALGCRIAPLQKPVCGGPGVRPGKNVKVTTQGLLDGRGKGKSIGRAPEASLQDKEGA

Regarding Dala1-peptide T-amide [DAPTA], in assay [1], the “Change of ICAM-1” value is reported as “decrease”, the “Change of IL-1” value is “decrease”, the “Change of IL-6” value is recorded as “decrease” and the “Change of IL-8” value is given as “decrease”. Moreover, in [1], the “Change of IL-23” value is reported as “decrease”, the “Change of NFkB” value is listed as “decrease”, the “Change of STAT3” value is “decrease” and the “Change of TNFα” value was “decrease”. For the same substance, the “Change of TLR4/MyD88” value with TLR4/MyD88 [2] is “decrease”.

For the substance Maraviroc, in [3], the CCL5/RANTES expression result was “significantly lower” and the hepatic steatosis entry is given as “ameliorated hepatic steatosis”.

Take “all-D-NTSYR ([dN][dT][dS][dY][dR]) [all-D-amino acid pentapeptide NTSYR]”: in the assay with CCR2 [4], the “CCL2 human monocyte chemotaxis” value is “antagonists”.

“all-D-SSTYR ([dS][dS][dT][dY][dR]) [all-D-amino acid pentapeptide SSTYR]”: the “CCL2 human monocyte chemotaxis” value with CCR2 [4] is “antagonists”.

Regarding all-D-TTNYT, in assay [5], the “Change of CCR2” value is “decrease”, the “Change of CCR5” value is “decrease”, the “Change of IL-6” value was “decrease” and the “Change of IL-β” value is on record as “decrease”. Further, in [5], the “Change of MCP-1 (CCL2)” value was “decrease”, the “Change of MIP-1α (CCL3)” value was “decrease” and the “Change of TNFα” value is “decrease”. In assay [5] (setting [9]), the “Change of CCR2” value is on record as “lowering expression”, the “Change of CCR5” value is “lowering expression”, the “Change of IL-β” value is given as “lowering expression” and the “Change of MCP-1 (CCL2)” value is recorded as “lowering expression”. Besides, in [5] (setting [9]), the “Change of MIP-1α (CCL3)” value is given as “lowering expression” and the “Change of TNFα” value was “lowering expression”. The “DC maturation of the four markers caused by LL37” value in assay [6] is “no effect”. Further, the “expression of maturation markers CD86, HLA-DR, CD58 and ICAM1 induced by TLR4/MyD88 activation (LPS)” value in the assay with TLR4/MyD88 [7] is “reduces expression of all the maturation markers”. Moreover, on CCR2 [8], the “CCL2 (MCP-1) human monocyte chemotaxis (chemotactic index)” value is recorded as “dual-antagonist”. For the same substance, the “CCL4 (MIP-1β) human monocyte chemotaxis (chemotactic index)” value on CCR5 is reported as “dual-antagonist”.

Take “all-D-TTSYT ([dT][dT][dS][dY][dT]) [all-D-amino acid pentapeptide TTSYT]”: the “CCL2 human monocyte chemotaxis” value in the assay with CCR2 [4] is given as “antagonists”.

In the case of all-D-bradykinin, the “inhibition of the response to bradykinin or bradykinin-like effect” value in the assay with response to bradykinin is “neither any inhibition of the response to bradykinin, or any bradykinin-like effect”.
